This note sets out measurements from patent publication US20040248887A1, “Inhibitors of cathepsin S” (IRM LLC, priority 2003, published 2004).

Structures are written as SMILES. Read-outs that look alike come from different tables or passages of the source.

The term Ki denotes the equilibrium dissociation constant of an inhibitor or competing ligand from its target.

What all share (type): biochemical
One assay addresses T1, Cathepsin K (Homo sapiens, UniProt P43235).
T1 sequence (P43235 115-329): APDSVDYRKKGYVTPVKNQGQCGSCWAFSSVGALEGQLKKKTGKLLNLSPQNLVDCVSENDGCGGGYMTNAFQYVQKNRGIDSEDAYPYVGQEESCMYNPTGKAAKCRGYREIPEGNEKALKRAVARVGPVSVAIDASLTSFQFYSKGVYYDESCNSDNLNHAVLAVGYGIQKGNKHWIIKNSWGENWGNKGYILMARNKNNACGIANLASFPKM
As to the kind of experiment: Cathepsin K inhibition, fluorogenic peptide substrate kinetic assay. Particulars: Table III; Cathepsin K inhibition constant, pH5.5; read-out: Ki Cat. K. As to the method: (§1) The optimal substrate for cathepsin K, acetyl-lysine-histidine-proline-lysine-amino carbamoyl coumarin, was identified from screening a combinatorial library of fluorogenic peptide substrates (Harris, J. L., B. J. Backes, et al., Proc Natl Acad Sci U S A 2000, 97(14), 7754-9). Kinetic measurements are performed in a total reaction volume of 30 μl in 384-well microtiter plates. […] The reactions are initiated by adding the substrate, acetyl-lysine-histidine-proline-lysine-amino carbamoyl coumarin, to a final concentration of 40 μM. The rate of substrate hydrolysis is measured by monitoring the increase in fluorescence at an excitation wavelength of 380 nm and an emission wavelength of 450 nm that results from cleavage of the aniline bond in the substrate by the enzyme. The apparent inhibition constants for the compounds are determined from the enzyme progress curves (Kuzmic, P., K. C. Elrod, et al., Anal Biochem 2000, 286(1), 45-50) and are then used to calculate the inhibition constants for competitive inhibitors.

The next assay addresses Cathepsin L (Homo sapiens, UniProt P07711). As to the kind of experiment: Cathepsin L inhibition, fluorogenic peptide substrate kinetic assay. Particulars: Table III; Cathepsin L inhibition constant, pH5.5; read-out: Ki Cat. L. As to the method:
as §1, with “Kinetic” for “The optimal substrate for cathepsin K, acetyl-lysine-histidine-proline-lysine-amino carbamoyl coumarin, was identified from screening a combinatorial library of fluorogenic peptide substrates (Harris, J. L., B. J. Backes, et al., Proc Natl Acad Sci U S A 2000, 97(14), 7754-9). Kinetic”, “acetyl-histidine-lysine-phenylalanine-lysine-amino” for “acetyl-lysine-histidine-proline-lysine-amino”, “20” for “40”

A further assay addresses Cathepsin S (Homo sapiens, UniProt P25774). In words: Cathepsin S inhibition, fluorogenic peptide substrate kinetic assay. Particulars: Cathepsin S inhibition constant, pH5.5, read-out: Ki Cat. S. The procedure, abridged:
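Reactions were started with 50 μM (final) acetyl-His-Pro-Val-Lys-aminocarbamoylcoumarin, and hydrolysis was followed by fluorescence (ex 380/em 450 nm). Apparent inhibition constants from enzyme progress curves were converted to Ki for competitive inhibitors using substrate concentration and Km.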

The target of a further assay is Cathepsin B (Homo sapiens, UniProt P07858). In words: Cathepsin B inhibition, fluorogenic peptide substrate kinetic assay. The note with it: Table III; Cathepsin B inhibition constant, pH5.5; read-out: Ki Cat. B. The protocol: The optimal substrate for cathepsin B, acetyl-histidine-proline-valine-lysine-amino carbamoyl coumarin, was identified from screening a combinatorial library of fluorogenic peptide substrates (Harris, J. L., B. J. Backes, et al., Proc Natl Acad Sci USA 2000, 97(14), 7754-9). Kinetic measurements are performed in a total reaction volume of 30 μl in 384-well microtiter plates. Cathepsin B, at a final concentration of 1.5 nM (active site), is incubated with the compounds at twelve varying concentrations in a buffer containing 100 mM NaAc (pH5.5), 1 mM EDTA, 100 mM NaCl, 0.01% Brij-35 for 20 minutes at room temperature. Control reactions in the absence of inhibitor are performed in replicates of 24. The reactions are initiated by adding the substrate, acetyl-histidine-proline-valine-lysine-amino carbamoyl coumarin, to a final concentration of 10 μM. The rate of substrate hydrolysis is measured by monitoring the increase in fluorescence at an excitation wavelength of 380 nm and an emission wavelength of 450 nm that results from cleavage of the aniline bond in the substrate by the enzyme. The apparent inhibition constants for the compounds are determined from the enzyme progress curves (Kuzmie, P., K. C. Elrod, et al., Anal Biochem 2000, 286(1), 45-50) and are then used to calculate the inhibition constants for competitive inhibitors.

Cathepsin L, sequence (P07711 114-333, species assumed): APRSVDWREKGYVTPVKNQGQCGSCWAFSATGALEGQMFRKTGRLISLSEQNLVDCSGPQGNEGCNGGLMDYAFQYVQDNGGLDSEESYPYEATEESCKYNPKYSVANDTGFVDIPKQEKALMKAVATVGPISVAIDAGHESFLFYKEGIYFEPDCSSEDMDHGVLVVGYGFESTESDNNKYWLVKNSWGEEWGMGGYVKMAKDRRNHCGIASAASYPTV
Cathepsin S, sequence (P25774 115-331, species assumed): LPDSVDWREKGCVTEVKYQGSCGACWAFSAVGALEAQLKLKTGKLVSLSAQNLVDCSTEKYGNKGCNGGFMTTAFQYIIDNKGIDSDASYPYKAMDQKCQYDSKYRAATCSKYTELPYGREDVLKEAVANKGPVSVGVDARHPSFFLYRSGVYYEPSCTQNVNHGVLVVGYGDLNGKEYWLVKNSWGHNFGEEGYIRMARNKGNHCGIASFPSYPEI

On to `C[C@@H](CNc1ccc(OC(F)(F)F)cc1)NC(=O)[C@H](CC1CCCCC1)NC(=O)c1cnn(-c2cccc(F)c2)c1` [Compound 141, 1-(3-Fluoro-phenyl)-1H-pyrazole-4-carboxylic acid {2-cyclohexyl-1-(S)-[1-(S)-methyl-2-(4-trifluoromethoxy-phenylamino)-ethylcarbamoyl]-ethyl}-amide], for which the inhibition constant Ki at Cathepsin K is more than 10 µM; at Cathepsin L, less than 10 µM; on Cathepsin S (Table II), less than 0.1 µM; at Cathepsin S (Table III), less than 0.1 µM; at Cathepsin B it was more than 10 µM.
For `Cn1nc(C(F)(F)F)cc1-c1ccc(S(=O)(=O)N[C@@H](CC2CCCCC2)C(=O)NCCN2CCc3cc(F)ccc32)s1` [Compound 231, (S)-3-Cyclohexyl-N-[2-(5-fluoro-2,3-dihydro-indol-1-yl)-ethyl]-2-[5-(2-methyl-5-trifluoromethyl-2H-pyrazol-3-yl)-thiophene-2-sulfonylamino]-propionamide], the inhibition constant (Ki) on Cathepsin K was more than 10 µM; on Cathepsin L it was more than 10 µM; at Cathepsin S (Table II), less than 0.1 µM; on Cathepsin S (Table III), less than 0.1 µM; at Cathepsin B, more than 10 µM.
On to `C[C@@H](CNc1cc(F)ccc1F)NC(=O)[C@H](CC1CCCCC1)NC(=O)c1ccc(-c2cccc(F)c2)o1` [Compound 91, 5-(3-Fluoro-phenyl)-furan-2-carboxylic acid {2-cyclohexyl-1-(S)-[2-(2,5-difluoro-phenylamino)-1-(S)-methyl-ethylcarbamoyl]-ethyl}-amide], for which the inhibition constant (Ki) is less than 10 µM on Cathepsin K; less than 1 µM on Cathepsin L; less than 0.1 µM at Cathepsin S (Table II); less than 0.1 µM at Cathepsin S (Table III); less than 10 µM at Cathepsin B.
Turning to `C[C@@H](CNc1cccc(C(N)=O)c1)NC(=O)[C@H](CC(C)(C)C)NC(=O)c1ccc(-c2cccc(F)c2)o1` [Compound 131, 5-(3-Fluoro-phenyl)-furan-2-carboxylic acid {1-(S)-[2-(3-carbamoyl-phenylamino)-1-(S)-methyl-ethylcarbamoyl]-3,3-dimethyl-butyl}-amide], the Ki was less than 1 µM on Cathepsin K; more than 10 µM on Cathepsin L; less than 0.1 µM on Cathepsin S (Table II); less than 0.1 µM on Cathepsin S (Table III); more than 10 µM on Cathepsin B.
Turning to `COC(=O)c1cccc(NC[C@H](C)NC(=O)[C@H](CC2CCCCC2)NC(=O)c2ccc(-c3cccc(F)c3)o2)c1` [Compound 110, 3-[2-(S)-(3-Cyclohexyl-2-(S)-{[5-(3-fluoro-phenyl)-furan-2-carbonyl]-amino}-propionylamino)-propylamino]-benzoic acid methyl ester], the Ki on Cathepsin K is less than 10 µM; on Cathepsin L, less than 10 µM; on Cathepsin S (Table II) it was less than 1 µM; on Cathepsin S (Table III), less than 1 µM; on Cathepsin B, more than 10 µM.
`COc1ccc(N2CCC[C@H](NC(=O)[C@H](CC(C)C)NC(=O)c3cccc(C)c3)C2)cc1` (single isomer, unassigned) [Compound 31]: the inhibition constant (Ki) at Cathepsin K was less than 10 µM; at Cathepsin L, less than 1 µM; on Cathepsin S (Table II), less than 10 µM; on Cathepsin S (Table III), less than 10 µM; on Cathepsin B, more than 10 µM.
For `Cc1ccccc1C(C)C(=O)N[C@@H](CC1CCCCC1)C(=O)NCCN1CCc2cc(F)ccc21` (stereo partly drawn) [Compound 61, N-{2-cyclohexyl-1-(S)-[2-(5-fluoro-2,3-dihydro-indol-1-yl)-ethylcarbamoyl]-ethyl}-2-o-tolyl-propionamide], the Ki at Cathepsin K was more than 10 µM; at Cathepsin L, less than 0.1 µM; on Cathepsin S (Table II), less than 0.1 µM; on Cathepsin S (Table III), less than 0.1 µM; at Cathepsin B, more than 10 µM.
Regarding `CS(=O)(=O)Nc1ccc(C(=O)N[C@@H](CC2CCCCC2)C(=O)NCCN2CCc3cc(F)ccc32)cc1` [Compound 81, N-(S)-{2-cyclohexyl-1-[2-(5-fluoro-2,3-dihydro-indol-1-yl)-ethylcarbamoyl]-ethyl}-4-methanesulfonylamino-benzamide], the inhibition constant Ki is less than 10 µM on Cathepsin K; less than 10 µM at Cathepsin L; less than 0.1 µM at Cathepsin S (Table II); less than 0.1 µM at Cathepsin S (Table III); more than 10 µM on Cathepsin B.
